# Test results: patent US4479943A, “3-Demethoxyistamycin B, the 2"-N-formimidoyl derivative thereof and pharmaceutical composition containing same” (Zaidan Hojin Biseibutsu Kagaku Kenkyu Kai, priority 1982, dated 1984)
# How the values were obtained:
# Escherichia coli K-12 = assay: Antibacterial MIC, standard serial dilution; format: cell-based; settings: nutrient agar, 37° C., 17 hours, as free base
# Providencia sp. 2991 = assay: Antibacterial MIC, standard serial dilution; format: cell-based; settings: nutrient agar, 37° C., 17 hours, as free base
# [1] = system: Bacillus cereus ATCC 10702; assay: Antibacterial MIC, standard serial dilution; format: cell-based; settings: nutrient agar, 37° C., 17 hours, as free base
# Bacillus anthracis = format: cell-based; settings: nutrient agar, 37° C., 17 hours, as free base
# [2] = system: Shigella dysenteriae JS11910; assay: Antibacterial MIC, standard serial dilution; format: cell-based; settings: nutrient agar, 37° C., 17 hours, as free base
# Serratia sp. 4 = assay: Antibacterial MIC, standard serial dilution; format: cell-based; settings: nutrient agar, 37° C., 17 hours, as free base
# Salmonella typhi T-63 = assay: Antibacterial MIC, standard serial dilution; format: cell-based; settings: nutrient agar, 37° C., 17 hours, as free base
# [3] = system: Pseudomonas aeruginosa No. 12; assay: Antibacterial MIC, standard serial dilution; format: cell-based; settings: nutrient agar, 37° C., 17 hours, as free base
# [4] = system: Pseudomonas aeruginosa PST1; assay: Antibacterial MIC, standard serial dilution; format: cell-based; settings: nutrient agar, 37° C., 17 hours, as free base
# Shigella sonnei JS11746 = assay: Antibacterial MIC, standard serial dilution; format: cell-based; settings: nutrient agar, 37° C., 17 hours, as free base
# [5] = system: Escherichia coli K-12 R388; assay: Antibacterial MIC, standard serial dilution; format: cell-based; settings: nutrient agar, 37° C., 17 hours, as free base
# [6] = system: Micrococcus flavus FDA 16; assay: Antibacterial MIC, standard serial dilution; format: cell-based; settings: nutrient agar, 37° C., 17 hours, as free base
# [7] = system: Escherichia coli K-12 J5R11-2; assay: Antibacterial MIC, standard serial dilution; format: cell-based; settings: nutrient agar, 37° C., 17 hours, as free base
# [8] = system: Pseudomonas aeruginosa GN315; assay: Antibacterial MIC, standard serial dilution; format: cell-based; settings: nutrient agar, 37° C., 17 hours, as free base
# Providencia sp. Pv16 = assay: Antibacterial MIC, standard serial dilution; format: cell-based; settings: nutrient agar, 37° C., 17 hours, as free base
# [9] = system: Pseudomonas aeruginosa ROS 134/PU21; assay: Antibacterial MIC, standard serial dilution; format: cell-based; settings: nutrient agar, 37° C., 17 hours, as free base
# [10] = system: Pseudomonas aeruginosa H9; assay: Antibacterial MIC, standard serial dilution; format: cell-based; settings: nutrient agar, 37° C., 17 hours, as free base
# Proteus vulgaris 0X19 = assay: Antibacterial MIC, standard serial dilution; format: cell-based; settings: nutrient agar, 37° C., 17 hours, as free base
# [11] = system: Escherichia coli JR66/W677; assay: Antibacterial MIC, standard serial dilution; format: cell-based; settings: nutrient agar, 37° C., 17 hours, as free base
# [12] = system: Pseudomonas aeruginosa A3; assay: Antibacterial MIC, standard serial dilution; format: cell-based; settings: nutrient agar, 37° C., 17 hours, as free base
# Escherichia coli NIHJ = assay: Antibacterial MIC, standard serial dilution; format: cell-based; settings: nutrient agar, 37° C., 17 hours, as free base
# Proteus rettgeri GN466 = assay: Antibacterial MIC, standard serial dilution; format: cell-based; settings: nutrient agar, 37° C., 17 hours, as free base
# Escherichia coli W677 = assay: Antibacterial MIC, standard serial dilution; format: cell-based; settings: nutrient agar, 37° C., 17 hours, as free base
# [13] = system: Salmonella enteritidis 1891; assay: Antibacterial MIC, standard serial dilution; format: cell-based; settings: nutrient agar, 37° C., 17 hours, as free base
# [14] = system: Klebsiella pneumoniae 22#3038; assay: Antibacterial MIC, standard serial dilution; format: cell-based; settings: nutrient agar, 37° C., 17 hours, as free base
# [15] = system: Mycobacterium smegmatis ATCC 607; assay: Antibacterial MIC, standard serial dilution; format: cell-based; settings: nutrient agar, 37° C., 17 hours, as free base
# [16] = system: Staphylococcus epidermidis 109; assay: Antibacterial MIC, standard serial dilution; format: cell-based; settings: nutrient agar, 37° C., 17 hours, as free base
# [17] = system: Bacillus subtilis PCI 219; assay: Antibacterial MIC, standard serial dilution; format: cell-based; settings: nutrient agar, 37° C., 17 hours, as free base
# [18] = system: Pseudomonas aeruginosa H11; assay: Antibacterial MIC, standard serial dilution; format: cell-based; settings: nutrient agar, 37° C., 17 hours, as free base
# Sarcina lutea PCI 1001 = assay: Antibacterial MIC, standard serial dilution; format: cell-based; settings: nutrient agar, 37° C., 17 hours, as free base
# Proteus rettgeri GN311 = assay: Antibacterial MIC, standard serial dilution; format: cell-based; settings: nutrient agar, 37° C., 17 hours, as free base
# [19] = system: Escherichia coli K-12 ML1410; assay: Antibacterial MIC, standard serial dilution; format: cell-based; settings: nutrient agar, 37° C., 17 hours, as free base
# Escherichia coli JR225 = assay: Antibacterial MIC, standard serial dilution; format: cell-based; settings: nutrient agar, 37° C., 17 hours, as free base
# [20] = system: Pseudomonas aeruginosa B-13; assay: Antibacterial MIC, standard serial dilution; format: cell-based; settings: nutrient agar, 37° C., 17 hours, as free base
# [21] = system: Escherichia coli K-12 ML1630; assay: Antibacterial MIC, standard serial dilution; format: cell-based; settings: nutrient agar, 37° C., 17 hours, as free base
# [22] = system: Staphylococcus aureus Ap01; assay: Antibacterial MIC, standard serial dilution; format: cell-based; settings: nutrient agar, 37° C., 17 hours, as free base
# [23] = system: Pseudomonas aeruginosa K-Ps 102; assay: Antibacterial MIC, standard serial dilution; format: cell-based; settings: nutrient agar, 37° C., 17 hours, as free base
# [24] = system: Escherichia coli K-12 ML1629; assay: Antibacterial MIC, standard serial dilution; format: cell-based; settings: nutrient agar, 37° C., 17 hours, as free base
# [25] = system: Pseudomonas aeruginosa 99; assay: Antibacterial MIC, standard serial dilution; format: cell-based; settings: nutrient agar, 37° C., 17 hours, as free base
# [26] = system: Pseudomonas maltophilia GN 907; assay: Antibacterial MIC, standard serial dilution; format: cell-based; settings: nutrient agar, 37° C., 17 hours, as free base
# [27] = system: Bacillus subtilis NRRL B-558; assay: Antibacterial MIC, standard serial dilution; format: cell-based; settings: nutrient agar, 37° C., 17 hours, as free base
# [28] = system: Klebsiella pneumoniae PCI602; assay: Antibacterial MIC, standard serial dilution; format: cell-based; settings: nutrient agar, 37° C., 17 hours, as free base
# [29] = system: Pseudomonas aeruginosa TI-13; assay: Antibacterial MIC, standard serial dilution; format: cell-based; settings: nutrient agar, 37° C., 17 hours, as free base
# Serratia marcescens = assay: Antibacterial MIC, standard serial dilution; format: cell-based; settings: nutrient agar, 37° C., 17 hours, as free base
# [30] = system: Staphylococcus aureus Smith; assay: Antibacterial MIC, standard serial dilution; format: cell-based; settings: nutrient agar, 37° C., 17 hours, as free base
# [31] = system: Pseudomonas aeruginosa 21-75; assay: Antibacterial MIC, standard serial dilution; format: cell-based; settings: nutrient agar, 37° C., 17 hours, as free base
# Serratia sp. SOU = assay: Antibacterial MIC, standard serial dilution; format: cell-based; settings: nutrient agar, 37° C., 17 hours, as free base
# bacteria = settings: in words; earlier work; cited from earlier work
# [32] = system: Corynebacterium bovis 1810; assay: Antibacterial MIC, standard serial dilution; format: cell-based; settings: nutrient agar, 37° C., 17 hours, as free base
# [33] = system: Staphylococcus aureus FDA 209P; assay: Antibacterial MIC, standard serial dilution; format: cell-based; settings: nutrient agar, 37° C., 17 hours, as free base
# mice = assay: Acute toxicity, intravenous administration in mice; format: in vivo
# [34] = system: Escherichia coli K-12 C600 R135; assay: Antibacterial MIC, standard serial dilution; format: cell-based; settings: nutrient agar, 37° C., 17 hours, as free base
# [35] = system: Escherichia coli K-12 LA290 R64; assay: Antibacterial MIC, standard serial dilution; format: cell-based; settings: nutrient agar, 37° C., 17 hours, as free base
# [36] = system: gram-negative and gram-positive bacteria; assay: Antibacterial activity overall (Table 1 spectrum); format: cell-based; settings: in words
# [37] = system: Escherichia coli K-12 LA290 R56; assay: Antibacterial MIC, standard serial dilution; format: cell-based; settings: nutrient agar, 37° C., 17 hours, as free base
# [38] = system: Escherichia coli K-12 ML1410 R81; assay: Antibacterial MIC, standard serial dilution; format: cell-based; settings: nutrient agar, 37° C., 17 hours, as free base
# Pseudomonas aeruginosa = settings: in words; earlier filings; cited from earlier work
structure (smiles),measurement,setting,value
"CNC[C@@H]1CC[C@@H](N)[C@@H](O[C@H]2[C@H](O)[C@H](N(C)C(=O)CN)[C@@H](OC)C[C@H]2N)O1 [B, istamycin B]",MIC,Escherichia coli K-12,0.78 µg/mL
same,MIC,Providencia sp. 2991,3.13 µg/mL
same,MIC,[1],6.25 µg/mL
same,MIC,Bacillus anthracis,0.78 µg/mL
same,MIC,[2],3.13 µg/mL
same,MIC,Serratia sp. 4,50 µg/mL
same,MIC,Salmonella typhi T-63,0.39 µg/mL
same,MIC,[3],50 µg/mL
same,MIC,[4],50 µg/mL
same,MIC,Shigella sonnei JS11746,0.78 µg/mL
same,MIC,[5],0.78 µg/mL
same,MIC,[6],12.5 µg/mL
same,MIC,[7],1.56 µg/mL
same,MIC,[8],50 µg/mL
same,MIC,Providencia sp. Pv16,1.56 µg/mL
same,MIC,[9],> 100 µg/mL
same,MIC,[10],50 µg/mL
same,MIC,Proteus vulgaris 0X19,0.39 µg/mL
same,MIC,[11],1.56 µg/mL
same,MIC,[12],1.56 µg/mL
same,MIC,Escherichia coli NIHJ,0.39 µg/mL
same,MIC,Proteus rettgeri GN466,0.78 µg/mL
same,MIC,Escherichia coli W677,0.78 µg/mL
same,MIC,[13],3.13 µg/mL
same,MIC,[14],1.56 µg/mL
same,MIC,[15],0.78 µg/mL
same,MIC,[16],0.39 µg/mL
same,MIC,[17],0.39 µg/mL
same,MIC,[18],100 µg/mL
same,MIC,Sarcina lutea PCI 1001,0.39 µg/mL
same,MIC,Proteus rettgeri GN311,0.78 µg/mL
same,MIC,[19],3.13 µg/mL
same,MIC,Escherichia coli JR225,1.56 µg/mL
same,MIC,[20],> 100 µg/mL
same,MIC,[21],3.13 µg/mL
same,MIC,[22],0.78 µg/mL
same,MIC,[23],50 µg/mL
same,MIC,[24],1.56 µg/mL
same,MIC,[25],100 µg/mL
same,MIC,[26],100 µg/mL
same,MIC,[27],0.39 µg/mL
same,MIC,[28],3.13 µg/mL
same,MIC,[29],50 µg/mL
same,MIC,Serratia marcescens,1.56 µg/mL
same,MIC,[30],0.39 µg/mL
same,MIC,[31],100 µg/mL
same,MIC,Serratia sp. SOU,25 µg/mL
same,antibacterial activity,bacteria,higher antibacterial activity than istamycin A
same,MIC,[32],0.39 µg/mL
same,MIC,[33],0.39 µg/mL
"CNCC1CCC(N)C(OC2C(N)CCC(N(C)C(=O)CN)C2O)O1 (stereo not drawn) [DB, 3-demethoxyistamycin B]",MIC,Escherichia coli K-12,0.78 µg/mL
same,MIC,Providencia sp. 2991,1.56 µg/mL
same,MIC,[1],1.56 µg/mL
same,MIC,Bacillus anthracis,0.39 µg/mL
same,MIC,[2],1.56 µg/mL
same,MIC,Serratia sp. 4,12.5 µg/mL
same,MIC,Salmonella typhi T-63,< 0.20 µg/mL
same,MIC,[3],12.5 µg/mL
same,acute toxicity,"mice; mice, intravenous, in words",low toxicity
same,tolerated dose (all treated mice),"mice; mouse, in vivo, iv, 336 h",100 mg/kg
same,MIC,[4],12.5 µg/mL
same,MIC,[5],0.39 µg/mL
same,MIC,[6],3.13 µg/mL
same,MIC,[7],0.78 µg/mL
same,MIC,[8],6.25 µg/mL
same,MIC,Providencia sp. Pv16,0.78 µg/mL
same,MIC,[9],50 µg/mL
same,MIC,[10],12.5 µg/mL
same,MIC,Proteus vulgaris 0X19,0.39 µg/mL
same,MIC,[34],0.78 µg/mL
same,MIC,[35],0.78 µg/mL
same,MIC,[11],0.78 µg/mL
same,MIC,[12],0.39 µg/mL
same,MIC,Escherichia coli NIHJ,0.39 µg/mL
same,MIC,Proteus rettgeri GN466,0.39 µg/mL
same,antibacterial activity,[36],the most active compound
same,MIC,Escherichia coli W677,0.39 µg/mL
same,MIC,[13],1.56 µg/mL
same,MIC,[14],1.56 µg/mL
same,MIC,[15],0.39 µg/mL
same,MIC,[16],< 0.20 µg/mL
same,MIC,[17],< 0.20 µg/mL
same,MIC,[18],25.0 µg/mL
same,MIC,Sarcina lutea PCI 1001,< 0.20 µg/mL
same,MIC,Proteus rettgeri GN311,0.39 µg/mL
same,MIC,[19],1.56 µg/mL
same,MIC,[37],0.39 µg/mL
same,MIC,Escherichia coli JR225,0.78 µg/mL
same,MIC,[38],0.78 µg/mL
same,MIC,[20],50 µg/mL
same,MIC,[22],0.39 µg/mL
same,MIC,[23],12.5 µg/mL
same,MIC,[24],0.78 µg/mL
same,MIC,[25],25 µg/mL
same,MIC,[26],100 µg/mL
same,MIC,[27],< 0.20 µg/mL
same,MIC,[28],0.78 µg/mL
same,MIC,[29],6.25 µg/mL
same,MIC,Serratia marcescens,0.78 µg/mL
same,MIC,[30],0.20 µg/mL
same,MIC,[31],50 µg/mL
same,MIC,Serratia sp. SOU,3.13 µg/mL
same,MIC,[32],< 0.20 µg/mL
same,MIC,[33],< 0.20 µg/mL
"CN(C(=O)CN)C1C(O)CC(N)C(OC2OC(CN)CCC2N)C1O (stereo not drawn) [di-N^6',O^3 -demethylistamycinA]",antibacterial activity against Pseudomonas aeruginosa,Pseudomonas aeruginosa,significantly higher than the parent istamycin A
